Data published in patent US20260232774A1, “COMPOSITIONS AND METHODS FOR TREATING INTESTINAL MICROBIOME DYSBIOSIS” (The Regents of the University of Michigan, priority 2023, published 2026).

Test system: GVHD in GF B6 BMT recipients
Conditions: mouse, in vivo
Source text: (A) The details of the experimental design were shown in FIG. 12G to L. Quantification of iron in stool from colon and ileum in Allo B6 and Allo B6 deferasirox at 7 day and 21 day after BMT were shown (Day7, N=2, Day21, Vehicle: N=4, Deferasirox: N=2). (B) The percent of IFNγ+CD4, IFNγ+CD8, and Treg cells in spleen from recipients at day7 after BMT were shown (N=4). (C) The cytokine levels of IFNγ, TNFα, and IL17A in serum from recipients at day7 after BMT were shown (Vehicle: N=3, Deferasirox: N=4). (D to F) GF mice received BMT from BALB/c donor mice. BMT recipients were orally treated with deferasirox (20 mg/kg) and vehicle every day. (D) Hypoxyprobe staining and relative fluorescent intensity in colon from recipients 21 days after BMT (scale bar=50 μm). Three independent experiments were performed. Survival rate (E) and clinical GVHD score (F) of BMT recipients (Syn GF vehicle: N=2, Syn GF deferasirox: N=2, Allo GF vehicle: N=8, Allo GF deferasirox: N=10). The horizontal line in box (C) represents the median with the box bounding the interquartile range. The ends of the whisker lines represent the minimum and maximum values. […]
Because alteration of O2 affects host IECs in addition to the microbiome, we next determined whether restoring intestinal hypoxia by Fe chelation after allo-HSCT mitigated GVHD independent of its impact on dysbiosis. […]

`O=C(O)c1ccc(-n2nc(-c3ccccc3O)nc2-c2ccccc2O)cc1` [deferasirox] was tested, and the “survival and GVHD of syngeneic GF mice” value was “survived without GVHD”.
